Test results reported in ChEMBL document CHEMBL1137071, “Phenyl thiazolyl urea and carbamate derivatives as new inhibitors of bacterial cell-wall biosynthesis” (Bioorg Med Chem Lett, 2004).

Experiments:
Format in all cases: functional
Staphylococcus aureus [1] = assay: Antimicrobial activity against Staphylococcus aureus GC 2216 (ATCC); Not active; 1-4
Escherichia coli [2] = assay: Antimicrobial activity against Escherichia coli GC 4559; Not active; 1-4
Staphylococcus [3] = assay: Antimicrobial activity against MSCNS (methicillin-susceptible coagulase-negative staphylococci) GC 646; Not active; 1-4
Escherichia coli [4] = assay: Antimicrobial activity against Escherichia coli GC 4560; Not active; 1-4
Staphylococcus aureus [5] = assay: Antimicrobial activity against Staphylococcus aureus GC 4543 (MSSA); Not active; 1-4
Enterococcus faecalis [6] = assay: Antimicrobial activity against Enterococcus faecalis GC 2242 (VRE); Not active; 1-4
Enterococcus faecalis [7] = assay: Antimicrobial activity against Enterococcus faecalis GC 4555 (ATCC); Not active; 1-4
[8] = Inhibitory activity against MurB
Streptococcus pneumoniae [9] = assay: Antimicrobial activity against Streptococcus pneumoniae GC1894 (PRSP); Not active; 1-4
Staphylococcus aureus [10] = assay: Antimicrobial activity against Staphylococcus aureus GC 1131 (MRSA); Not active; 1-4
Streptococcus pneumoniae [11] = assay: Antimicrobial activity against Streptococcus pneumoniae GC1894 (PRSP) in the presence of 4% bovine serum albumin; Not active; 1-4
Staphylococcus aureus [12] = assay: Antimicrobial activity against Staphylococcus aureus GC 4543 (MSSA); Not active; 0.5-8
Streptococcus pneumoniae [13] = assay: Antimicrobial activity against Streptococcus pneumoniae GC1894 (PRSP); Not active; 0.5-8
Staphylococcus aureus [14] = assay: Antimicrobial activity against Staphylococcus aureus GC 2216 (ATCC); Not active; 0.5-8
Enterococcus faecalis [15] = assay: Antimicrobial activity against Enterococcus faecalis GC 2242 (VRE); Not active; 0.5-8
Staphylococcus aureus [16] = assay: Antimicrobial activity against Staphylococcus aureus GC 1131 (MRSA); Not active; 0.5-8
Escherichia coli [17] = assay: Antimicrobial activity against Escherichia coli GC 4559; Not active; 0.5-8
Streptococcus pneumoniae [18] = assay: Antimicrobial activity against Streptococcus pneumoniae GC1894 (PRSP) in the presence of 4% bovine serum albumin; Not active; 0.5-8
Enterococcus faecalis [19] = assay: Antimicrobial activity against Enterococcus faecalis GC 4555 (ATCC); Not active; 0.5-8
Staphylococcus [20] = assay: Antimicrobial activity against MSCNS (methicillin-susceptible coagulase-negative staphylococci) GC 646; Not active; 0.5-8
Escherichia coli [21] = assay: Antimicrobial activity against Escherichia coli GC 4560; Not active; 0.5-8
Staphylococcus [22] = assay: Antimicrobial activity against MSCNS (methicillin-susceptible coagulase-negative staphylococci) GC 646; Not active; 32-128
Escherichia coli [23] = assay: Antimicrobial activity against Escherichia coli GC 4559; Not active; 32-128
Escherichia coli [24] = assay: Antimicrobial activity against Escherichia coli GC 4560; Not active; 32-128
Enterococcus faecalis [25] = assay: Antimicrobial activity against Enterococcus faecalis GC 4555 (ATCC); Not active; 32-128
Enterococcus faecalis [26] = assay: Antimicrobial activity against Enterococcus faecalis GC 2242 (VRE); Not active; 32-128
Streptococcus pneumoniae [27] = assay: Antimicrobial activity against Streptococcus pneumoniae GC1894 (PRSP); Not active; 32-128
Streptococcus pneumoniae [28] = assay: Antimicrobial activity against Streptococcus pneumoniae GC1894 (PRSP) in the presence of 4% bovine serum albumin; Not active; 32-128
Staphylococcus aureus [29] = assay: Antimicrobial activity against Staphylococcus aureus GC 2216 (ATCC); Not active; 32-128
Staphylococcus aureus [30] = assay: Antimicrobial activity against Staphylococcus aureus GC 4543 (MSSA); Not active; 32-128
Staphylococcus aureus [31] = assay: Antimicrobial activity against Staphylococcus aureus GC 1131 (MRSA); Not active; 32-128
Escherichia coli [32] = assay: Antimicrobial activity against Escherichia coli GC 4560; Not active; 0.5-128
Enterococcus faecalis [33] = assay: Antimicrobial activity against Enterococcus faecalis GC 4555 (ATCC); Not active; 0.5-128
Staphylococcus aureus [34] = assay: Antimicrobial activity against Staphylococcus aureus GC 4543 (MSSA); Not active; 0.5-128
Streptococcus pneumoniae [35] = assay: Antimicrobial activity against Streptococcus pneumoniae GC1894 (PRSP) in the presence of 4% bovine serum albumin; Not active; 0.5-128
Streptococcus pneumoniae [36] = assay: Antimicrobial activity against Streptococcus pneumoniae GC1894 (PRSP); Not active; 0.5-128
Escherichia coli [37] = assay: Antimicrobial activity against Escherichia coli GC 4559; Not active
Staphylococcus [38] = assay: Antimicrobial activity against MSCNS (methicillin-susceptible coagulase-negative staphylococci) GC 646; Not active; 0.5-128
Staphylococcus aureus [39] = assay: Antimicrobial activity against Staphylococcus aureus GC 2216 (ATCC); Not active; 0.5-128
Enterococcus faecalis [40] = assay: Antimicrobial activity against Enterococcus faecalis GC 2242 (VRE); Not active; 0.5-128
Staphylococcus aureus [41] = assay: Antimicrobial activity against Staphylococcus aureus GC 1131 (MRSA); Not active; 0.5-128
Staphylococcus aureus [42] = assay: Antimicrobial activity against Staphylococcus aureus GC 2216 (ATCC)
[43] = Inhibitory activity against MurB from Escherichia coli
Streptococcus pneumoniae [44] = assay: Antimicrobial activity against Streptococcus pneumoniae GC1894 (PRSP)
Escherichia coli [45] = assay: Antimicrobial activity against Escherichia coli GC 4560
Staphylococcus aureus [46] = assay: Antimicrobial activity against Staphylococcus aureus GC 4543 (MSSA)
Enterococcus faecalis [47] = assay: Antimicrobial activity against Enterococcus faecalis GC 4555 (ATCC)
Streptococcus pneumoniae [48] = assay: Antimicrobial activity against Streptococcus pneumoniae GC1894 (PRSP) in the presence of 4% bovine serum albumin
[49] = Antimicrobial activity against MSCNS (methicillin-susceptible coagulase-negative staphylococci) GC 646; settings: Staphylococcus
[50] = Inhibitory activity against MurB from Staphylococcus aureus
Enterococcus faecalis [51] = assay: Antimicrobial activity against Enterococcus faecalis GC 2242 (VRE)
[52] = Inhibitory activity against MurA from Escherichia coli
Escherichia coli [53] = assay: Antimicrobial activity against Escherichia coli GC 4559
Staphylococcus aureus [54] = assay: Antimicrobial activity against Staphylococcus aureus GC 1131 (MRSA)
Enterococcus faecalis [55] = assay: Antimicrobial activity against Enterococcus faecalis GC 2242 (VRE); Not active; 16->128
Streptococcus pneumoniae [56] = assay: Antimicrobial activity against Streptococcus pneumoniae GC1894 (PRSP) in the presence of 4% bovine serum albumin; Not active; 16->128
Escherichia coli [57] = assay: Antimicrobial activity against Escherichia coli GC 4560; Not active; 16->128
Streptococcus pneumoniae [58] = assay: Antimicrobial activity against Streptococcus pneumoniae GC1894 (PRSP); Not active; 16->128
Staphylococcus aureus [59] = assay: Antimicrobial activity against Staphylococcus aureus GC 4543 (MSSA); Not active; 16->128
Enterococcus faecalis [60] = assay: Antimicrobial activity against Enterococcus faecalis GC 4555 (ATCC); Not active; 16->128
Escherichia coli [61] = assay: Antimicrobial activity against Escherichia coli GC 4559; Not active; 16->128
Staphylococcus aureus [62] = assay: Antimicrobial activity against Staphylococcus aureus GC 1131 (MRSA); Not active; 16->128
Staphylococcus aureus [63] = assay: Antimicrobial activity against Staphylococcus aureus GC 2216 (ATCC); Not active; 16->128
Staphylococcus [64] = assay: Antimicrobial activity against MSCNS (methicillin-susceptible coagulase-negative staphylococci) GC 646; Not active; 16->128

COC(=O)c1cnn(C)c1NC(=O)Nc1ccc(Cl)c(Cl)c1
23 µg/mL: IC50 [8]
4 µg/mL: MIC (Staphylococcus aureus [1]) | MIC (Escherichia coli [2]) | MIC (Staphylococcus [3]) | MIC (Escherichia coli [4]) | MIC (Staphylococcus aureus [5]) | MIC (Enterococcus faecalis [6]) | MIC (Enterococcus faecalis [7]) | MIC (Streptococcus pneumoniae [9]) | MIC (Staphylococcus aureus [10]) | MIC (Streptococcus pneumoniae [11])

O=C(Nc1ccc(Cl)c(Cl)c1)Nc1ccccn1
8 µg/mL: MIC (Staphylococcus aureus [12]) | MIC (Streptococcus pneumoniae [13]) | MIC (Staphylococcus aureus [14]) | MIC (Enterococcus faecalis [15]) | MIC (Staphylococcus aureus [16]) | MIC (Escherichia coli [17]) | MIC (Streptococcus pneumoniae [18]) | MIC (Enterococcus faecalis [19]) | MIC (Staphylococcus [20]) | MIC (Escherichia coli [21])
17 µg/mL: IC50 [8]

O=C(Nc1ccc(Cl)c(Cl)c1)Nc1cccc2cccnc12
> 25 µg/mL: IC50 [8]
> 128 µg/mL: MIC (Staphylococcus [22]) | MIC (Escherichia coli [23]) | MIC (Escherichia coli [24]) | MIC (Enterococcus faecalis [25]) | MIC (Enterococcus faecalis [26]) | MIC (Streptococcus pneumoniae [27]) | MIC (Streptococcus pneumoniae [28]) | MIC (Staphylococcus aureus [29]) | MIC (Staphylococcus aureus [30]) | MIC (Staphylococcus aureus [31])

COC(=O)c1sccc1NC(=O)Nc1ccc(Cl)c(Cl)c1
> 128 µg/mL: MIC (Escherichia coli [32]) | MIC (Enterococcus faecalis [33]) | MIC (Staphylococcus aureus [34]) | MIC (Streptococcus pneumoniae [35]) | MIC (Streptococcus pneumoniae [36]) | MIC (Escherichia coli [37]) | MIC (Staphylococcus [38]) | MIC (Staphylococcus aureus [39]) | MIC (Enterococcus faecalis [40]) | MIC (Staphylococcus aureus [41])
18 µg/mL: IC50 [8]

N#Cc1cnc(NC(=O)OCc2ccc(Cl)c(Cl)c2)s1
> 128 µg/mL: MIC (Staphylococcus aureus [42]) | MIC (Escherichia coli [45]) | MIC (Staphylococcus aureus [46]) | MIC (Streptococcus pneumoniae [48]) | MIC [49] | MIC (Escherichia coli [53]) | MIC (Staphylococcus aureus [54])
24 µg/mL: IC50 [50]
128 µg/mL: MIC (Streptococcus pneumoniae [44])
> 25 µg/mL: IC50 [43] | IC50 [52]
64 µg/mL: MIC (Enterococcus faecalis [47]) | MIC (Enterococcus faecalis [51])

O=C(Nc1ccc(Cl)c(Cl)c1)Nc1nncs1
> 128 µg/mL: MIC (Enterococcus faecalis [55]) | MIC (Streptococcus pneumoniae [56]) | MIC (Escherichia coli [57]) | MIC (Streptococcus pneumoniae [58]) | MIC (Staphylococcus aureus [59]) | MIC (Enterococcus faecalis [60]) | MIC (Escherichia coli [61]) | MIC (Staphylococcus aureus [62]) | MIC (Staphylococcus aureus [63]) | MIC (Staphylococcus [64])
> 25 µg/mL: IC50 [8]

N#Cc1cnc(NC(=O)Nc2ccc(Cl)c(Cl)c2)s1
> 128 µg/mL: MIC (Escherichia coli [53])
1 µg/mL: MIC (Enterococcus faecalis [47]) | MIC [49] | MIC (Staphylococcus aureus [54])
< 0.12 µg/mL: MIC (Streptococcus pneumoniae [44])
5.6 µg/mL: IC50 [50]
4 µg/mL: MIC (Escherichia coli [45])
12.6 µg/mL: IC50 [52]
4.5 µg/mL: IC50 [43]
0.5 µg/mL: MIC (Staphylococcus aureus [42]) | MIC (Staphylococcus aureus [46]) | MIC (Enterococcus faecalis [51])
128 µg/mL: MIC (Streptococcus pneumoniae [48])

CC(C)(C)c1nc(NC(=O)Nc2cccc(C#N)c2)sc1C#N
> 25 µg/mL: IC50 [43] | IC50 [50] | IC50 [52]
> 128 µg/mL: MIC (Staphylococcus aureus [42]) | MIC (Escherichia coli [45]) | MIC (Staphylococcus aureus [46]) | MIC (Streptococcus pneumoniae [48]) | MIC [49] | MIC (Escherichia coli [53]) | MIC (Staphylococcus aureus [54])
8 µg/mL: MIC (Streptococcus pneumoniae [44]) | MIC (Enterococcus faecalis [51])
16 µg/mL: MIC (Enterococcus faecalis [47])
